What was measured:
[1] = system: E. coli UBMS 89-2 (Sensitive); assay: MIC, agar dilution; format: cell-based; conditions: E. coli UBMS 89-2 Tet Sens.; Table IA; unit assumed
E. coli BAJ9003 = assay: MIC, agar dilution (Table IA); format: cell-based; conditions: unit assumed
E. coli MC4100 TetB = assay: MIC, agar dilution (Table IA); format: cell-based; conditions: unit assumed
[2] = system: Ps. acruginosa ATCC 27853; assay: MIC, agar dilution (Table IA); format: cell-based; conditions: unit assumed
E. coli J3272 TetC = assay: MIC, agar dilution (Table IA); format: cell-based; conditions: unit assumed
S. aureus ROSE (MP) = assay: MIC, agar dilution (Table IA); format: cell-based; conditions: unit assumed
E. coli UBMS 88-1 (tetB) = assay: MIC, agar dilution; format: cell-based; conditions: E. coli UBMS 88-1 TetB; Table IA; unit assumed
[3] = system: S. aureus UBMS 90-1 (tetM); assay: MIC, agar dilution; format: cell-based; conditions: S. aureus UBMS 90-1 TetM; Table IA; unit assumed
[4] = system: S. aureus ATCC 29213 (Sensitive); assay: MIC, agar dilution; format: cell-based; conditions: S. aureus ATCC 29213; Table IA; unit assumed
S. aureus SMITH (sens) [5] = assay: In vivo antibacterial evaluation, acute lethal infection in mice
Text: In Vivo Antibacterial Evaluation (Table VII)

E. coli UBMS 90-4 (tetM) = assay: MIC, agar dilution; format: cell-based; conditions: E. coli UBMS 90-4 TetM; Table IA; unit assumed
E. coli J2175 = assay: MIC, agar dilution (Table IA); format: cell-based; conditions: unit assumed
E. coli J3272 Tet sens. = assay: MIC, agar dilution (Table IA); format: cell-based; conditions: unit assumed
E. coli ATCC 25922 = assay: MIC, agar dilution; format: cell-based; conditions: E. coli ATCC 25922; Table IA; unit assumed
[6] = system: S. aureus UBMS 90-3 (Sensitive); assay: MIC, agar dilution; format: cell-based; conditions: S. aureus UBMS 90-3; Table IA; unit assumed
[7] = system: X. maltophilia NEMC 87210; assay: MIC, agar dilution (Table IA); format: cell-based; conditions: unit assumed
E. faecalis ATCC 29212 = assay: MIC, agar dilution; format: cell-based; conditions: E. faecalis ATCC 29212; Table IA; unit assumed
[8] = system: S. aureus IVES 1983 (meth. resistant); assay: MIC, agar dilution; format: cell-based; conditions: S. aureus IVES 1983; Table IA; unit assumed
E. faecalis 12201 = assay: MIC, agar dilution; format: cell-based; conditions: Enterococcus 12201; Table IA; unit assumed
S. mariescens FDOR 8733 = assay: MIC, agar dilution (Table IA); format: cell-based; conditions: unit assumed
E. coli UBMS 90-5 = assay: MIC, agar dilution (Table IA); format: cell-based; conditions: unit assumed
S. aureus SMITH (sens) [9] = assay: In vivo antibacterial evaluation, acute lethal infection in mice; conditions: Intraveneous
E. coli PRP1 TetA = assay: MIC, agar dilution (Table IA); format: cell-based; conditions: unit assumed
[10] = system: S. haemolyticus AVAH 88-3; assay: MIC, agar dilution; format: cell-based; conditions: S. hemolyticus AVHAH 88-3; Table IA; unit assumed
E. coli UBMS 89-1 (tetM) = assay: MIC, agar dilution; format: cell-based; conditions: E. coli UBMS 89-1 TetM; Table IA; unit assumed
[11] = system: S. aureus UBMS 88-4 (Sensitive); assay: MIC, agar dilution; format: cell-based; conditions: S. aureus UBMS 88-4; Table IA; unit assumed
[12] = system: S. aureus UBMS 88-7 (tetK); assay: MIC, agar dilution; format: cell-based; conditions: S. aureus UBMS 88-7 TetK; Table IA; unit assumed
[13] = system: S. aureus Smith (Sensitive); assay: MIC, agar dilution; format: cell-based; conditions: S. aureus SMITH (MP); Table IA; unit assumed
[14] = system: S. aureus UBMS 88-5 (tetM); assay: MIC, agar dilution; format: cell-based; conditions: S. aureus UBMS 88-5 TetM; Table IA; unit assumed
[15] = system: S. aureus IVES 2943 (meth. resistant); assay: MIC, agar dilution; format: cell-based; conditions: S. aureus IVES 2943; Table IA; unit assumed
E. coli #311 (MP) = assay: MIC, agar dilution (Table IA); format: cell-based; conditions: unit assumed
E. coli J3272 TetD = assay: MIC, agar dilution (Table IA); format: cell-based; conditions: unit assumed
S. aureus NEMC 8769/89-4 = assay: MIC, agar dilution (Table IA); format: cell-based; conditions: unit assumed
[16] = system: S. aureus UBMS 90-2 (tetM); assay: MIC, agar dilution; format: cell-based; conditions: S. aureus UBMS 90-2 TetM; Table IA; unit assumed

## CN(C)CC(=O)Nc1cc(N(C)C)c2c(c1O)C(=O)C1=C(O)C3(O)C(=O)C(C(N)=O)=C(O)C(N(C)C)C3CC1C2.O=S(=O)(O)O.O=S(=O)(O)O (stereo not drawn) [JJ, [4S-(4alpha,12aalpha))-4,7-Bis(dimethylamino)-9-([(dimethylamino)acetyl)amino]-1,4,4a,5,5a,6,11,12a-octahydro-3,10,12,12a-tetrahydroxy-1,11-dioxo-2-naphthacenecarboxamide disulfate]
[1]
  Antibacterial activity (MIC): 0.25 µg/mL
E. coli BAJ9003
  Antibacterial activity (MIC): 0.03 µg/mL
E. coli MC4100 TetB
  Antibacterial activity (MIC): 0.25 µg/mL
[2]
  Antibacterial activity (MIC): 8 µg/mL
E. coli J3272 TetC
  Antibacterial activity (MIC): 1 µg/mL
S. aureus ROSE (MP)
  Antibacterial activity (MIC): 2 µg/mL
E. coli UBMS 88-1 (tetB)
  Antibacterial activity (MIC): 0.25 µg/mL
[3]
  Antibacterial activity (MIC): 0.25 µg/mL
[4]
  Antibacterial activity (MIC): 0.03 µg/mL
S. aureus SMITH (sens) [5]; Oral
  ED50: 9.6 mg/kg
S. aureus SMITH (sens) [5]; Subcutaneous
  ED50: 0.66 mg/kg
E. coli UBMS 90-4 (tetM)
  Antibacterial activity (MIC): 0.25 µg/mL
E. coli J2175
  Antibacterial activity (MIC): 0.25 µg/mL
E. coli J3272 Tet sens.
  Antibacterial activity (MIC): 0.25 µg/mL
E. coli ATCC 25922
  Antibacterial activity (MIC): 0.25 µg/mL
[6]
  Antibacterial activity (MIC): 0.12 µg/mL
[7]
  Antibacterial activity (MIC): 0.5 µg/mL
E. faecalis ATCC 29212
  Antibacterial activity (MIC): 0.12 µg/mL
[8]
  Antibacterial activity (MIC): 2 µg/mL
E. faecalis 12201
  Antibacterial activity (MIC): 0.12 µg/mL
S. mariescens FDOR 8733
  Antibacterial activity (MIC): 4 µg/mL
E. coli UBMS 90-5
  Antibacterial activity (MIC): 0.25 µg/mL
S. aureus SMITH (sens) [9]
  ED50: 0.61 mg/kg
E. coli PRP1 TetA
  Antibacterial activity (MIC): 2 µg/mL
[10]
  Antibacterial activity (MIC): 0.25 µg/mL
E. coli UBMS 89-1 (tetM)
  Antibacterial activity (MIC): 0.25 µg/mL
[11]
  Antibacterial activity (MIC): 0.25 µg/mL
[12]
  Antibacterial activity (MIC): 1 µg/mL
[13]
  Antibacterial activity (MIC): 0.12 µg/mL
[14]
  Antibacterial activity (MIC): 0.25 µg/mL
[15]
  Antibacterial activity (MIC): 2 µg/mL
E. coli #311 (MP)
  Antibacterial activity (MIC): 0.25 µg/mL
E. coli J3272 TetD
  Antibacterial activity (MIC): 0.12 µg/mL
S. aureus NEMC 8769/89-4
  Antibacterial activity (MIC): 0.06 µg/mL
[16]
  Antibacterial activity (MIC): 0.25 µg/mL

## CCCCNCC(=O)Nc1cc(N(C)C)c2c(c1O)C(=O)C1=C(O)C3(O)C(=O)C(C(N)=O)=C(O)C(N(C)C)C3CC1C2.Cl.Cl (stereo not drawn) [PP, [4S-(4alpha,12aalpha)]-4,7-Bis(dimethylamino)-9-[[(butylamino)acetyl]amino)-1,4,4a,5,5a,6,11,12a-octahydro-3,10,12,12a-tetrahydroxy-1,11-dioxo-2-naphthacenecarboxamide dihydrochloride]
[1]
  Antibacterial activity (MIC): 0.5 µg/mL
E. coli BAJ9003
  Antibacterial activity (MIC): 0.12 µg/mL
E. coli MC4100 TetB
  Antibacterial activity (MIC): 0.5 µg/mL
[2]
  Antibacterial activity (MIC): 16 µg/mL
E. coli J3272 TetC
  Antibacterial activity (MIC): 0.5 µg/mL
S. aureus ROSE (MP)
  Antibacterial activity (MIC): 2 µg/mL
E. coli UBMS 88-1 (tetB)
  Antibacterial activity (MIC): 0.5 µg/mL
[3]
  Antibacterial activity (MIC): 0.5 µg/mL
[4]
  Antibacterial activity (MIC): 0.25 µg/mL
S. aureus SMITH (sens) [5]; Oral
  ED50: >16 mg/kg
E. coli UBMS 90-4 (tetM)
  Antibacterial activity (MIC): 0.25 µg/mL
E. coli J2175
  Antibacterial activity (MIC): 0.25 µg/mL
E. coli J3272 Tet sens.
  Antibacterial activity (MIC): 0.5 µg/mL
E. coli ATCC 25922
  Antibacterial activity (MIC): 0.25 µg/mL
[6]
  Antibacterial activity (MIC): 0.25 µg/mL
[7]
  Antibacterial activity (MIC): 0.5 µg/mL
E. faecalis ATCC 29212
  Antibacterial activity (MIC): 0.12 µg/mL
[8]
  Antibacterial activity (MIC): 2 µg/mL
E. faecalis 12201
  Antibacterial activity (MIC): 0.12 µg/mL
S. mariescens FDOR 8733
  Antibacterial activity (MIC): 2 µg/mL
E. coli UBMS 90-5
  Antibacterial activity (MIC): 0.5 µg/mL
S. aureus SMITH (sens) [9]
  ED50: 1 to 2 mg/kg
E. coli PRP1 TetA
  Antibacterial activity (MIC): 1 µg/mL
[10]
  Antibacterial activity (MIC): 0.25 µg/mL
E. coli UBMS 89-1 (tetM)
  Antibacterial activity (MIC): 0.25 µg/mL
[11]
  Antibacterial activity (MIC): 0.25 µg/mL
[12]
  Antibacterial activity (MIC): 2 µg/mL
[13]
  Antibacterial activity (MIC): 0.12 µg/mL
[14]
  Antibacterial activity (MIC): 0.5 µg/mL
[15]
  Antibacterial activity (MIC): 2 µg/mL
E. coli #311 (MP)
  Antibacterial activity (MIC): 0.25 µg/mL
E. coli J3272 TetD
  Antibacterial activity (MIC): 0.25 µg/mL
S. aureus NEMC 8769/89-4
  Antibacterial activity (MIC): 0.12 µg/mL
[16]
  Antibacterial activity (MIC): 0.5 µg/mL

Source: patent publication USRE40086E1, “Method for treating bacterial infection with novel 7-substituted-9-substituted amino 6-demethyl-6-deoxytetracyclines” (Wyeth Holdings Corporation, priority 1991, dated 2008)
